Test results: publication PMC5908160, “Inhibition of sperm motility in male macaques with EP055, a potential non-hormonal male contraceptive” (PLoS ONE, 2018)

Test system: rhesus macaque (Macaca mulatta) sperm
Assay: Sperm motility in rhesus males after i.v. infusion of EP055
Assay type: in vivo
Description: Semen was collected by direct penile stimulation with a P-T Electronics Model 303 PTE 110 Volt AC stimulator equipped with electrocardiogram pad electrodes (10–35 V, 20 ms duration, 18 pulses/sec) as previously described. Semen was collected weekly for 3 weeks to establish baseline parameters for each male. Samples were inspected visually to determine sperm motility and suitability for the study. Sperm motility data from male 28106 presented in S1 Table is representative of pre-treatment samples. Immediately after collection, the seminal plug was separated from the liquefied fraction, placed into a cryovial, flash frozen in liquid nitrogen, and stored at -80C until evaluation for drug levels. Spermatozoa were prepared by centrifugation (7 min, 200 g) of the liquid portion of the ejaculate and resuspending the sperm pellet in TALP-HEPES medium containing 0.3% bovine serum albumin at 37°C. An aliquot was taken to determine concentration using a hemocytometer, percent motility and forward progression as previously described. Baseline semen samples were collected from each male twice during the week prior to treatment. Semen was collected from each male 6–8 hr, 28–30 hr, and 78 hr post-infusion of low dose EP055 (75–80 mg/kg body weight) intravenously. After a one-week recovery period, a baseline semen sample was obtained, and the following week semen samples were collected as described above after an intravenous infusion of high dose EP055 (125–130 mg/kg).
Sperm were diluted in TALP-HEPES medium containing 0.3% bovine serum albumin to achieve 50-100 sperm per field. Videos were taken using an iPhone 6s Plus positioned 12 inches from a Dell model E170Sc 17-inch LCD monitor (1280 x 1024 pixels at 60 Hz, 0.264 mm) attached to an Olympus CK40 inverted microscope using 20x magnification (10x objective). The video camera collected images at a resolution of 1080 x 1920 pixels at 30 frames per second and 401 ppi with a typical contrast ratio of 1300:1 for at least 8 seconds. The pixel size was 1.2 microns and the videos in .mp4 or .mov format. Videos were converted to .avi format using Any Video Converter (version 6.06, http://www.anvsoft.com/any-video-converter-free, Ultimate Media Solutions, AnvSoft Inc). These files were uncompressed using VirtualDub (version 1.10.2, http://www.virtualdub.org/).
Images were analyzed using the MTrackJ plug in (version 1.5.1, https://imagescience.org/meijering/software/mtrackj/) for ImageJ (1.51K, https://fiji.sc/). Briefly, files were imported as uncompressed .avi files, converted to greyscale and saved as .TIFF files. Each image was calibrated by measuring a representative sperm head (acrosomal apex to midpiece) using the Straight Edge Tool, using 5.18 microns as the standard length of a Macaca mulatta sperm head. Approximately 50 sperm per video were manually tracked for the entire length of the track and the mean curvilinear velocity of each track calculated using the MEASURE function. Tracks used in the final analysis were a minimum of 0.4 seconds.
Prior to infusion of EP055, each male was sedated with ketamine by the surgical staff at ONPRC and transported to the operating room. After positioning in dorsal recumbency, the male was intubated and placed under inhalant (isoflurane) anesthesia. Bilateral intravenous catheters were placed in cephalic veins, one for infusion and one for back-up. A percutaneous arterial line was placed in the right femoral artery for direct blood pressure measurement. Invasive blood pressure, heart rate, SpO2, and respirations were monitored by the surgical staff throughout the procedure. Initially, the low doses of EP055 in 5% DMSO-PBS 7.6 was infused by i.v. at 75-80 mg/kg, using a Medfusion 3500 pump (Smiths Medical, St. Paul, MN), and was started at a low flow rate (0.6mg/kg/min). In 3 of 4 males, a 5-10% increase in blood pressure and heart rate were noted within the first 2-3 minutes of infusion of EP055. […]

[1] = high dose 125–130 mg/kg, post-infusion
[2] = male 25854, high dose 125–130 mg/kg, 6 hrs post-iv
[3] = male 25854, high dose 125–130 mg/kg, 30 hrs post-iv
[4] = male 25854, high dose 125–130 mg/kg, 78 hrs post-iv
[5] = male 25854, high dose 125–130 mg/kg, 318 hrs post-iv
[6] = male 25854, high dose 125–130 mg/kg, 390 hrs post-iv
[7] = male 25854, high dose 125–130 mg/kg, 558 hrs post-iv
[8] = male 25854, low dose 75–80 mg/kg, 6 hrs post-iv
[9] = male 25854, low dose 75–80 mg/kg, 30 hrs post-iv
[10] = male 25854, low dose 75–80 mg/kg, 78 hrs post-iv
[11] = male 25854, low dose 75–80 mg/kg, 1206 hrs post-iv
[12] = male 25854, low dose 75–80 mg/kg, 1254 hrs post-iv
[13] = male 28043, high dose 125–130 mg/kg, 6 hrs post-iv
[14] = male 28043, high dose 125–130 mg/kg, 28 hrs post-iv
[15] = male 28043, high dose 125–130 mg/kg, 78 hrs post-iv
[16] = male 28043, high dose 125–130 mg/kg, 360 hrs post-iv
[17] = male 28043, high dose 125–130 mg/kg, 408 hrs post-iv
[18] = male 28043, high dose 125–130 mg/kg, 528 hrs post-iv
[19] = male 28043, low dose 75–80 mg/kg, 6 hrs post-iv
[20] = male 28043, low dose 75–80 mg/kg, 30 hrs post-iv
[21] = male 28043, low dose 75–80 mg/kg, 78 hrs post-iv
[22] = male 28043, low dose 75–80 mg/kg, 480 hrs post-iv
[23] = male 28043, low dose 75–80 mg/kg, 648 hrs post-iv
[24] = male 28106, high dose 125–130 mg/kg, 6 hrs post-iv
[25] = male 28106, high dose 125–130 mg/kg, 30 hrs post-iv
[26] = male 28106, high dose 125–130 mg/kg, 78 hrs post-iv
[27] = male 28106, high dose 125–130 mg/kg, 318 hrs post-iv
[28] = male 28106, high dose 125–130 mg/kg, 390 hrs post-iv
[29] = male 28106, high dose 125–130 mg/kg, 558 hrs post-iv
[30] = male 28106, high dose 125–130 mg/kg, 894 hrs post-iv
[31] = male 28106, low dose 75–80 mg/kg, 6 hrs post-iv
[32] = male 28106, low dose 75–80 mg/kg, 30 hrs post-iv
[33] = male 28106, low dose 75–80 mg/kg, 78 hrs post-iv
[34] = male 28106, low dose 75–80 mg/kg, 342 hrs post-iv
[35] = male 28187, high dose 125–130 mg/kg, 8 hrs post-iv
[36] = male 28187, high dose 125–130 mg/kg, 30 hrs post-iv
[37] = male 28187, high dose 125–130 mg/kg, 78 hrs post-iv
[38] = male 28187, high dose 125–130 mg/kg, 414 hrs post-iv
[39] = male 28187, low dose 75–80 mg/kg, 6 hrs post-iv
[40] = male 28187, low dose 75–80 mg/kg, 30 hrs post-iv
[41] = male 28187, low dose 75–80 mg/kg, 78 hrs post-iv
[42] = male 28187, low dose 75–80 mg/kg, 582 hrs post-iv
[43] = male 28187, low dose 75–80 mg/kg, 678 hrs post-iv

Compound: COC(=O)NNc1nc(Nc2ccc(NC(C)=O)c(O)c2)nc(SCC(=O)O)n1 [EP055]
- normal motility (high dose 125–130 mg/kg, 30 hours post-infusion): no normal motility was observed
- time at which recovery of sperm motility was obvious [1]: ≤ 78 h
- time to full recovery of sperm motility in all animals [1]: ≤ 18 days
- sperm motility (high dose 125–130 mg/kg, within 6 hours post-infusion, mean of 4 animals): approximately 20%
- normal sperm motility (low dose 75–80 mg/kg, by 30 hours post-infusion, mean of 4 animals): below 32%
- F1 [2]: 5%
- F2 [2]: 80%
- Static [2]: 15%
- VCL ± SEM [2]: 104.6 ± 6.9 um/sec
- Clumps [3]: Yes
- F1 [3]: 10%
- F2 [3]: 60%
- Static [3]: 30%
- VCL ± SEM [3]: 120.9 ± 4.8 um/sec
- Clumps [4]: Few
- F1 [4]: 20%
- F2 [4]: 25%
- Static [4]: 55%
- VCL ± SEM [4]: 94.2 ± 5.0 um/sec
- F1 [5]: 20%
- F2 [5]: 20%
- F3+F4 [5]: 10%
- Static [5]: 50%
- F1 [6]: 10%
- F3+F4 [6]: 70%
- Static [6]: 20%
- VCL ± SEM [6]: 93.2 ± 5.0 um/sec
- F1 [7]: 1%
- F3+F4 [7]: 90%
- Static [7]: 9%
- Clumps [8]: Few
- F1 [8]: 10%
- F3+F4 [8]: 70%
- Static [8]: 20%
- Clumps [9]: Fewer
- F1 [9]: 5%
- F3+F4 [9]: 80%
- Static [9]: 15%
- Clumps [10]: Yes
- F1 [10]: <1%
- F3+F4 [10]: 95%
- Static [10]: 5%
- F1 [11]: 2%
- F3+F4 [11]: 83%
- Static [11]: 15%
- F3+F4 [12]: 80%
- Static [12]: 20%
- Clumps [13]: Yes
- F1 [13]: 25%
- F3+F4 [13]: 50%
- Static [13]: 25%
- Clumps [14]: Yes
- F1 [14]: 99%
- F3+F4 [14]: <1%
- VCL ± SEM [14]: 72.1 ± 12.4 um/sec
- Clumps [15]: Few
- F1 [15]: 10%
- F3+F4 [15]: 60%
- Static [15]: 30%
- VCL ± SEM [15]: 117.5 ± 16.3. um/sec
- F1 [16]: 10%
- F3+F4 [16]: 65%
- Static [16]: 25%
- Clumps [17]: Yes
- F1 [17]: 5%
- F3+F4 [17]: 70%
- Static [17]: 25%
- F2 [18]: 5%
- F3+F4 [18]: 80%
- Static [18]: 15%
- VCL ± SEM [18]: 135.0 ± 12.6 um/sec
- Clumps [19]: Few
- F3+F4 [19]: 75%
- Static [19]: 25%
- Clumps [20]: Yes
- F1 [20]: 20%
- F3+F4 [20]: 30%
- Static [20]: 50%
- Clumps [21]: Yes
- F1 [21]: 20%
- F2 [21]: 50%
- Static [21]: 30%
- F3+F4 [22]: 80%
- Static [22]: 20%
- F1 [23]: 5%
- F3+F4 [23]: 80%
- Static [23]: 15%
- Clumps [24]: Yes
- F1 [24]: 55%
- F2 [24]: 25%
- Static [24]: 20%
- VCL ± SEM [24]: 72.8 ± 4.8 um/sec
- Clumps [25]: Yes
- F1 [25]: 20%
- F2 [25]: 5%
- Static [25]: 75%
- VCL ± SEM [25]: 67.5 ± 7.9 um/sec
- Clumps [26]: Yes
- F1 [26]: 15%
- F2 [26]: 20%
- F3+F4 [26]: 10%
- Static [26]: 55%
- VCL ± SEM [26]: 80.3 ± 6.9 um/sec
- Clumps [27]: Yes
- F1 [27]: 30%
- F2 [27]: 20%
- F3+F4 [27]: 25%
- Static [27]: 25%
- Clumps [28]: Yes
- F1 [28]: 15%
- F2 [28]: 10%
- F3+F4 [28]: 50%
- Static [28]: 25%
- Clumps [29]: Yes
- F1 [29]: 15%
- F2 [29]: 40%
- F3+F4 [29]: 15%
- Static [29]: 30%
- F1 [30]: 2%
- F3+F4 [30]: 78%
- Static [30]: 20%
- VCL ± SEM [30]: 101.7 ± 4.1 um/sec
- Clumps [31]: Yes
- F1 [31]: 20%
- F3+F4 [31]: 50%
- Static [31]: 30%
- VCL ± SEM [31]: 135.8 ± 6.8 um/sec
- Clumps [32]: Yes
- F1 [32]: 25%
- F2 [32]: 45%
- F3+F4 [32]: 5%
- Static [32]: 25%
- VCL ± SEM [32]: 105.1 ± 7.0 um/sec
- Clumps [33]: Yes
- F1 [33]: 30%
- F2 [33]: 40%
- Static [33]: 30%
- VCL ± SEM [33]: 89.7 ± 6.3 um/sec
- F1 [34]: 5%
- F3+F4 [34]: 80%
- Static [34]: 15%
- VCL ± SEM [34]: 105.0 ± 5.8 um/sec
- Clumps [35]: Yes
- F1 [35]: 10%
- F2 [35]: 50%
- F3+F4 [35]: 30%
- Static [35]: 10%
- VCL ± SEM [35]: 52.9 ± 3.0 um/sec
- Clumps [36]: Yes
- F1 [36]: 10%
- F2 [36]: 80%
- Static [36]: 10%
- VCL ± SEM [36]: 40.5 ± 2.7 um/sec
- Clumps [37]: Fewer
- F1 [37]: 95%
- Static [37]: 5%
- VCL ± SEM [37]: 25.4 ± 2.6 um/sec
- Clumps [38]: Few
- F1 [38]: 10%
- F3+F4 [38]: 85%
- Static [38]: 5%
- VCL ± SEM [38]: 87.3 ± 6.2 um/sec
- Clumps [39]: Few
- F1 [39]: 35%
- F3+F4 [39]: 65%
- Clumps [40]: Yes
- F3+F4 [40]: 10%
- Static [40]: 90%
- Clumps [41]: Yes
- F1 [41]: 95%
- F3+F4 [41]: 5%
- F1 [42]: 95%
- F3+F4 [42]: 5%
- F3+F4 [43]: 80%
- Static [43]: 20%
- VCL ± SEM [43]: 109.4 ± 13.8 um/sec
- sperm clumping (post-infusion): severe sperm clumping
- potential contraceptive window following administration (rhesus): 24 to 48 h
- time necessary for sperm velocity to recover completely (rhesus): more than 3 weeks
